Measurements as given in PMC10518255, “A first-in-class pan-lysyl oxidase inhibitor impairs stromal remodeling and enhances gemcitabine response and survival in pancreatic cancer” (Nature Cancer, 2023).
Values joined by “and” are separate entries in the source; they are usually repeats but may differ in a detail not shown here. Identical values can stand only once.

What was measured:
KPC PDAC tumors = experiment: Tumor weight at end point, KPC survival study; assay type: in vivo, mouse; conditions: Extended Data 5B; KPC tumours; individual animals
Excerpt: Treatment of KPC mice with gemcitabine led to a slowing of primary tumor progression, increasing survival from a median survival of 85 days in untreated mice to 125 days in gemcitabine-treated mice (P = 0.0005) (Fig. 4b,c, blue versus red). PXS-5505 as a monotherapy led to no changes in median survival compared to vehicle (85 versus 81 days) (Fig. 4c, blue versus green).
Extended Data Fig. 5 PXS-5505 in combination with gemcitabine in vivo. a. […] Signal is defined as the enzyme activity in the aorta, while noise is measured in the presence of a high concentration (300 µM) BAPN to abolish any lysyl oxidase family activity. […] Data presented as mean values +/− SD b. […] Data presented as mean values +/− SD. c. FITC-dextran (molecular weight: 10 kDa) signal quantification from KPC tumor end point from each treatment group (vehicle n = 3 biologically independent animals, PXS-5505 n = 5 biologically independent animals, Gem n = 5 biologically independent animals, PXS-5505 + Gem n = 5 biologically independent animals). 4 ROIs taken per mouse. P-values determined by Welchs t-test. […] Quantification of red birefringent (mature) collagen fibers from human PDXs at end point after 3 cycles of treatment, treated as indicated. […] P values determined by Welchs t-test. g. […] Quantification of green birefringent (nascent) collagen fibers from human PDXs at end point, treated as indicated. […]

[1] = tested on: KPC CCs liver colonization; experiment: Intrasplenic model of liver colonization, late administration of treatment (established metastases); assay type: in vivo, mouse; conditions: for Quantification of metastases/mm2 (late administration): Figure 5F, intrasplenic liver colonization, individual animals; for metastatic burden in liver: treatment from day 4, established metastases
Method: Fig. 5 PXS-5505 administered in intrasplenic models of liver colonization. a, Schematic of the intrasplenic model of liver colonization with early administration of treatment. CCs were implanted into the spleen of BALB/c-Fox1nuAusb mice under anesthesia on day 0. Treatment with 0.9% saline (vehicle); twice-weekly Gem (100 mg kg^−1 i.p.) (Gem); daily PXS-5505 at 20 mg kg^−1 i.p. (PXS-5505) or daily PXS-5505 at 20 mg kg^−1 i.p. + twice-weekly Gem at 100 mg kg^−1 i.p. (PXS-5505 + Gem) was administered from day 1. At the end point (day 10) livers were collected and H&E-stained for scoring. Representative images of H&E-stained liver (taken from one biologically independent animal). Scale bar, 100 μm. b, Representative images of H&E-stained livers from each treatment group (n = 1 FOV taken from one biologically independent animal per group). Scale bars, 100 μm. c, Quantification of metastases per mm^2 (n = 9 biologically independent animals per group). Data are mean ± s.d. […] Data are mean ± s.d. Two-tailed P values were determined by an unpaired, nonparametric t-test with a Mann–Whitney U-test correction (comparison between two groups). e, Schematic of intrasplenic model of liver colonization with late administration of treatment. CCs were implanted into the spleen of BALB/c-Fox1nuAusb mice under anesthesia on day 0. Treatment with 0.9% saline (vehicle); twice-weekly Gem (100 mg kg^−1 i.p.) (Gem); daily PXS-5505 at 20 mg kg^−1 i.p. (PXS-5505); or daily PXS-5505 at 20 mg kg^−1 i.p. + three doses of Gem (100 mg kg^−1 i.p. (PXS-5505 + Gem) was administered from day 4. Representative images of H&E-stained liver (taken from one biologically independent animal). Scale bar, 100 μm. f, Quantification of metastases at endpoint (n = 10 biologically independent animals per treatment group, n = 5 biologically independent animals at day 4 for confirmation of overt metastases). Data are mean ± s.d. P values were determined by an unpaired, nonparametric t-test with a Mann–Whitney U-test correction (comparison between two groups). g, Representative images of H&E-stained livers from each treatment group. Scale bars, 100 μm. Source data
For the intrasplenic models, animals were randomized before receiving treatment. GLP-grade PXS-5505 (20 mg kg^−1) was administered daily i.p. (starting day 0 for the early stage and day 4 for the late stage) until the end point and gemcitabine (100 mg kg^−1) was administered on days 3, 6 and 9 for the early stage and days 5, 7 and 10 for the late stage. […]
The 4-µm formalin-fixed paraffin-embedded (FFPE) sections were cut and stained for H&E following standard histopathology methodologies or stained for CK19 using the Bond RX H2(30) protocol detailed above. […] The total number of liver metastases were quantified and determined using QuPath[57].

Row | Compound | Tumour weight at endpoint (KPC PDAC tumors) | Quantification of metastases/mm2 (late administration) [1] | metastatic burden in liver [1]
1 | Cl.Cl.NC/C=C(\F)CS(=O)(=O)c1cccc2cccnc12.O [PXS-5505, (Z)-3-fluoro-4-(quinolin-8-ylsulfonyl)but-2-en-1-amine dihydrochloride monohydrate] | 0.55 grams and 0.54 grams and 0.19 grams and 0.83 grams and 0.33 grams and 1.18 grams and 0.43 grams and 0.96 grams and 1.94 grams and 0.78 grams and 1.16 grams and 1.34 grams and 0.68 grams and 0.3 grams and 1.3 grams and 0.5 grams and 0.8 grams | 0.001672 metastases/mm2 and 0.001212 metastases/mm2 and 0.001664 metastases/mm2 and 0.001776 metastases/mm2 and 0.002261 metastases/mm2 and 0.001845 metastases/mm2 and 0.0007878 metastases/mm2 and 0.001204 metastases/mm2 and 0.001477 metastases/mm2 and 0.001663 metastases/mm2 | did not significantly alter metastatic burden
2 | Nc1ccn([C@@H]2O[C@H](CO)[C@@H](O)C2(F)F)c(=O)n1 [Gem, gemcitabine] | 0.28 grams and 0.51 grams and 0.6 grams and 0.69 grams and 0.41 grams and 0.462 grams and 0.3 grams and 0.26 grams and 0.37 grams and 1.42 grams and 0.75 grams and 0.63 grams and 1.2 grams and 0.7 grams and 0.4 grams | 0.001632 metastases/mm2 and 0.001329 metastases/mm2 and 0.001736 metastases/mm2 and 0.001305 metastases/mm2 and 0.001793 metastases/mm2 and 0.001126 metastases/mm2 and 0.001529 metastases/mm2 and 0.001107 metastases/mm2 and 0.001352 metastases/mm2 and 0.001209 metastases/mm2 | did not significantly alter metastatic burden
